# US10399939B2, “Tetrahydronaphthalene estrogen receptor modulators and uses thereof” (Genentech, Inc., priority 2015, dated 2019)
# Biological target: ER-alpha (WT) (Homo sapiens (Human), UniProt P03372)
# Test: Breast Cancer Cell ERa High Content Fluorescence Imaging Degradation Assay (ER-alpha MCF7 HCS)
# Assay type: cell-based
# Conditions: for EC50 / ER-alpha (WT) MCF7 HCS (S inf) / ER-alpha (WT) MCF7 HCS (EC50): MCF7 breast cancer cells; for EC50 / ER-alpha (WT) MCF7 HCS (EC50): 4 hours incubation, inflexion point of curve; for ER-alpha (WT) MCF7 HCS (S inf): plateau of the maximal effect (ERa degradation), DMSO and 5 nM Fulvestrant define 0% and 100% changes in ESR1
# Protocol: Example 901: Breast Cancer Cell ERa High Content Fluorescence Imaging Degradation Assay
# MCF7 breast cancer cells were seeded on day 1 at a density of 10,000 cells per well in 384 well poly-lysine coated tissue culture plate (Greiner # T-3101-4), in 50 µL/well RPMI (phenol red free), 10% FBS (Charcoal stripped), containing L-glutamine. […] Compounds and controls were dispensed using a Labcyte Echo acoustic dispenser to dispense compounds with a pre-defined serial dilution (1.8×, 10 point, in duplicate) and appropriate backfill and control compounds (final total volume transferred was 417.5 nL and compound dispense volume ranges from 2.5 nL to 417.5 nL; 0.84% DMSO (v/v) final), ultimately producing a concentration range from 0.05 nM to 835 nM. Cell plates were incubated at 37° C., for 4 hours. Fixation and permeabilization were carried out using a Biotek EL406 plate washer and dispenser as follows. Cells were fixed by addition of 15 μL of 16% paraformaldehyde (Electron Microscopy Sciences #15710-S) directly to the 50 μL cell culture medium in each well using the peristaltic pump 5 μL cassette on a Biotek EL406 (final concentration of formaldehyde was 3.7% w/v). Samples were incubated 30 minutes. Well contents was aspirated and 50 μL/well of Phosphate Buffered Saline (PBS) containing 0.5% w/v bovine serum albumen, 0.5% v/v Triton X-100 (Antibody Dilution Buffer) was added to each well. Samples were incubated for 30 minutes. Well contents were aspirated and washed 3 times with 100 μL/well of PBS. Immunofluorescence staining of estrogen receptor alpha (ESR1) was carried out using a Biotek EL406 plate washer and dispenser as follows. The well supernatant was aspirated from the wells and 25 μL/well of anti-ESR1 mAb (F10) (Santa Cruz sc-8002) diluted 1:1000 in Antibody Dilution Buffer was dispensed. Samples were incubated for 2 hours at room temperature. Samples were washed 4 times with 100 μL/well of PBS. 25 μL (microliters)/well of secondary antibody solution (Alexafluor® 488 conjugate anti-mouse IgG (LifeTechnologies #A21202) diluted 1:1000 and Hoechst 33342 1 μg/ml diluted in Antibody Dilution Buffer) were dispensed into each well. Samples were incubated for 2 hours at room temperature. Samples were washed 3 times with 100 μL/well of PBS using a Biotek EL406. Quantitative fluorescence imaging of ESR1 was carried out using a Cellomics Arrayscan V® (Thermo). Fluorescence images of the samples (Channel 1: XF53 Hoechst (DNA stain); Channel 2: XF53 FITC (ESR1 stain)) were acquired using a Cellomics VTI Arrayscan using the Bioapplication “Compartmental Analysis” using the auto-exposure (based on DMSO control wells) setting “peak target percentile” set to 25% target saturation for both channels. Channel 1 (DNA stain) was used to define the nuclear region (Circ). Measurements of “Mean_CircAvgIntCh2”, which is the Alexafluor 488 fluorescence intensity (ESR1) within the nuclear region, was measured on a per cell basis and averaged over all the measured cells. Data analysis was carried out using Genedata Screener Software, with DMSO and 5 nM Fulvestrant treated samples being used to define the 0% and 100% changes in ESR1. The “Robust Fit” method was used to define the inflexion point of curve (EC50) and the plateau of the maximal effect (Sinf).
# ER-alpha (WT), sequence (P03372 whole entry): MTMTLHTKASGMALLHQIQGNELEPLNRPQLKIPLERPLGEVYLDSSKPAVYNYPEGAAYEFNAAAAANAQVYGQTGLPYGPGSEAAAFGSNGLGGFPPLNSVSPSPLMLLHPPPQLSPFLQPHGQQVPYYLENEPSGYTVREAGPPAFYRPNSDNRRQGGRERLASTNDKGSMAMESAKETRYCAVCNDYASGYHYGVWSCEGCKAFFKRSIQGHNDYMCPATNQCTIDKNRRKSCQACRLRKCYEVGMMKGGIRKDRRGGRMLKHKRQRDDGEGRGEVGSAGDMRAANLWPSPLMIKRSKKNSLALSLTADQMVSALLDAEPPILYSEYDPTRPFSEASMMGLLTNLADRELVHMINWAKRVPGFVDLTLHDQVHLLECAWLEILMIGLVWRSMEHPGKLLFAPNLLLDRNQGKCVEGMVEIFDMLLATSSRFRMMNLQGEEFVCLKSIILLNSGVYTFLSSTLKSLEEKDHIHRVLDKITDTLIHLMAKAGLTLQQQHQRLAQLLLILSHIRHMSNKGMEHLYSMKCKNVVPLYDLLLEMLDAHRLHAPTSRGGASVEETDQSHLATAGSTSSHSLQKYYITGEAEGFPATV
SMILES,EC50 [nM],ER-alpha (WT) MCF7 HCS (S inf) [%],ER-alpha (WT) MCF7 HCS (EC50) [µmol],degradation activities measured as ER-alpha MCF7 HCS Sinf (%) values (in words) (MCF7 cells)
"Oc1ccc2c(c1)CC[C@@H](c1ccccc1)[C@H]2c1ccc(OCCN2CC(CF)C2)cc1 [Compound 102, (1S,2R)-1-[4-[2-[3-(fluoromethyl)azetidin-1-yl]ethoxy]phenyl]-2-phenyl-tetralin-6-ol]",8.12,−94.7,–,–
"C[C@H](CN1CC[C@@H](CF)C1)Oc1ccc([C@@H]2c3ccc(O)cc3CC[C@@H]2c2ccccc2)cc1 [Compound 125, (5R,6S)-5-(4-(((R)-1-((R)-3-(fluoromethyl)pyrrolidin-1-yl)propan-2-yl)oxy)phenyl)-6-phenyl-5,6,7,8-tetrahydronaphthalen-2-ol]",–,–,>0.10,–
"Oc1ccc2c(c1)CC[C@@H](c1ccccc1)[C@H]2c1ccc(OCCN2CC(CCl)C2)cc1 [Compound 113, (5S,6R)-5-(4-(2-(3-(chloromethyl)azetidin-1-yl)ethoxy)phenyl)-6-phenyl-5,6,7,8-tetrahydronaphthalen-2-ol]",0.177,−93.6,–,–
"Oc1ccc2c(c1)CC[C@@H](c1ccc(F)cc1)[C@H]2c1ccc(OCCN2CC(CF)C2)cc1 [Compound 103, (1S,2R)-1-[4-[2-[3-(fluoromethyl)azetidin-1-yl]ethoxy]phenyl]-2-(4-fluorophenyl)tetralin-6-ol]",38.6,−78,–,–
"Oc1ccc2c(c1)CCC1(CCCC1)[C@H]2c1ccc(OCCN2CC(CF)C2)cc1 [Compound 121, (S)-1′-(4-(2-(3-(fluoromethyl)azetidin-1-yl)ethoxy)phenyl)-3′,4′-dihydro-1′H-spiro[cyclopentane-1,2′-naphthalen]-6′-ol]",0.208,−98.5,–,–
"Oc1ccc2c(c1)CC[C@H](c1ccccc1)[C@@H]2c1ccc(OCCN2CC(CCl)C2)cc1 [Compound 112, (5R,6S)-5-(4-(2-(3-(chloromethyl)azetidin-1-yl)ethoxy)phenyl)-6-phenyl-5,6,7,8-tetrahydronaphthalen-2-ol]",50.9,−35,–,–
"Oc1ccc2c(c1)CC[C@H](c1ccccc1)[C@@H]2c1ccc(OCCN2CC(C(F)F)C2)cc1 [Compound 118, (5R,6S)-5-(4-(2-(3-(difluoromethyl)azetidin-1-yl)ethoxy)phenyl)-6-phenyl-5,6,7,8-tetrahydronaphthalen-2-ol]",0.184,−93.6,–,–
"CN1CC(CCOc2ccc([C@H]3c4ccc(O)cc4CC[C@H]3c3ccccc3)cc2)C1 (stereo in doubt) [B, (5S,6R)-5-(4-(2-(1-methylazetidin-3-yl)ethoxy)phenyl)-6-phenyl-5,6,7,8-tetrahydronaphthalen-2-ol, reference compound]",0.026,−43.35,–,low
"Oc1ccc2c(c1)CC[C@H](c1ccc(F)cc1)[C@@H]2c1ccc(OCCN2CC(CF)C2)cc1 [Compound 106, (1R,2S)-1-[4-[2-[3-(fluoromethyl)azetidin-1-yl]ethoxy]phenyl]-2-(4-fluorophenyl)tetralin-6-ol]",0.977,−97,–,–
"Oc1ccc2c(c1)CC[C@H](C1CCC(F)(F)CC1)[C@@H]2c1ccc(OCCN2CC(CF)C2)cc1 [Compound 110, (5R,6R)-6-(4,4-difluorocyclohexyl)-5-(4-(2-(3-(fluoromethyl)azetidin-1-yl)ethoxy)phenyl)-5,6,7,8-tetrahydronaphthalen-2-ol]",0.177,−98.2,–,–
"Oc1ccc2c(c1)CC[C@H](c1ccccc1)[C@@H]2c1c(F)cc(OCCN2CC(CF)C2)cc1F [Compound 105, (1S,2S)-1-[2,6-difluoro-4-[2-[3-(fluoromethyl)azetidin-1-yl]ethoxy]phenyl]-2-phenyl-tetralin-6-ol]",0.0404,−98.7,–,–
"Oc1ccc2c(c1)CC[C@@H](c1ccccc1)[C@H]2c1c(F)cc(OCCN2CC(CF)C2)cc1F [Compound 104, (1R,2R)-1-[2,6-difluoro-4-[2-[3-(fluoromethyl)azetidin-1-yl]ethoxy]phenyl]-2-phenyl-tetralin-6-ol]",15.6,−95,–,–
"Oc1ccc2c(c1)CC[C@H](C1CCOCC1)[C@@H]2c1ccc(OCCN2CC(CF)C2)cc1 [Compound 107, (5R,6R)-5-(4-(2-(3-(fluoromethyl)azetidin-1-yl)ethoxy)phenyl)-6-(tetrahydro-2H-pyran-4-yl)-5,6,7,8-tetrahydronaphthalen-2-ol]",16.4,−87.8,–,–

# Continued, values first:
EC50 [nM],ER-alpha (WT) MCF7 HCS (S inf) [%],ER-alpha (WT) MCF7 HCS (EC50) [µmol],degradation activities measured as ER-alpha MCF7 HCS Sinf (%) values (in words) (MCF7 cells),SMILES
0.0461,−96.5,–,–,"Oc1ccc2c(c1)CC[C@H](c1ccccc1)[C@@H]2c1ccc(OCCN2CC(CF)C2)nc1 [Compound 127, (5S,6S)-5-(6-(2-(3-(fluoromethyl)azetidin-1-yl)ethoxy)pyridin-3-yl)-6-phenyl-5,6,7,8-tetrahydronaphthalen-2-ol]"
228,−50,–,–,"Oc1ccc2c(c1)CC[C@H](c1ccccc1)[C@@H]2c1ccc(NCCN2CC[C@@H](CF)C2)cc1 [Compound 139, (5R,6S)-5-(4-((2-((R)-3-(fluoromethyl)pyrrolidin-1-yl)ethyl)amino)phenyl)-6-phenyl-5,6,7,8-tetrahydronaphthalen-2-ol]"
12.5,−84,–,–,"Oc1ccc2c(c1)CC[C@@H](c1ccccc1)[C@H]2c1ccc(OCCN2CC(CF)C2)nc1 [Compound 128, (5R,6R)-5-(6-(2-(3-(fluoromethyl)azetidin-1-yl)ethoxy)pyridin-3-yl)-6-phenyl-5,6,7,8-tetrahydronaphthalen-2-ol]"
–,–,>0.10,–,"Oc1ccc2c(c1)CC[C@@H](c1ccccc1)[C@H]2c1ccc(OC2CN(CCCF)C2)cc1 [Compound 129, (5S,6R)-5-(4-((1-(3-fluoropropyl)azetidin-3-yl)oxy)phenyl)-6-phenyl-5,6,7,8-tetrahydronaphthalen-2-ol]"
186,−80,–,–,"Oc1ccc2c(c1)CC[C@H](c1ccccc1)[C@@H]2c1ccc(NCCN2CC(CF)C2)cc1 [Compound 137, (5R,6S)-5-(4-((2-(3-(fluoromethyl)azetidin-1-yl)ethyl)amino)phenyl)-6-phenyl-5,6,7,8-tetrahydronaphthalen-2-ol]"
–,−73.5,–,–,"Oc1ccc2c(c1)CC[C@H](c1ccccc1)[C@@H]2c1ccc(OCCN2CCCC2)cc1 [lasofoxifene, (5R,6S)-6-phenyl-5-(4-(2-(pyrrolidin-1-yl)ethoxy)phenyl)-5,6,7,8-tetrahydronaphthalen-2-ol, reference compound]"
53,−30,–,–,"N#Cc1ccc([C@H]2CCc3cc(O)ccc3[C@H]2c2ccc(OCCN3CC(CF)C3)cc2)cc1 [Compound 133, 4-((1R,2S)-1-(4-(2-(3-(fluoromethyl)azetidin-1-yl)ethoxy)phenyl)-6-hydroxy-1,2,3,4-tetrahydronaphthalen-2-yl)benzonitrile]"
0.675,−97.1,–,–,"C[C@H](CN1CC[C@@H](CF)C1)Oc1ccc([C@H]2c3ccc(O)cc3CC[C@H]2c2ccccc2)cc1 [Compound 126, (5S,6R)-5-(4-(((R)-1-((R)-3-(fluoromethyl)pyrrolidin-1-yl)propan-2-yl)oxy)phenyl)-6-phenyl-5,6,7,8-tetrahydronaphthalen-2-ol]"
